Data on 93 molecules can be found in PubChem BioAssay AID2384 (Southern Research Specialized Biocontainment Screening …, 2010).

For the assay, the system named is S. typhi GFP reporter counter-screen, fluorescence, 4 h. The assay can be described thus: inhibitors in S. typhi counter-screen strain, dose response, counter-screen for PhoP regulon inhibitor project, fluorescence, 4 h (AID 2384). (Counterscreens check selectivity or assay interference.)

Take `CCCCn1c(=N)n(CC(=O)c2ccc(Br)s2)c2ccccc21`: the IC50 – broadly, the midpoint of a concentration-inhibition curve – is 45.1 µM.

Turning to `CCC(C)N1CCC2(CC1)N=c1c(c3c4c5c(C)c(O)c3c(O)c1=NC(=O)C(C)=CC=C[C@H](C)[C@H](O)[C@@H](C)[C@@H](O)[C@@H](C)[C@H](OC(C)=O)[C@H](C)[C@@H](OC)C=CO[C@@](C)(O5)C4=O)N2` (stereo partly drawn), the IC50 was 5.31 µM.

Turning to `CN(C)CCNC(=O)c1ccc(COc2ccc(Cl)cc2Cl)cc1`, the IC50 was 75.6 µM.

For the molecule `COc1ccc(Nc2nc(NCC3CCCO3)c3ccccc3n2)c(OC)c1` (stereo not drawn), the IC50 was 73.2 µM.

Consider `NC1=NC[C@@H](Cc2ccc(O)cc2)N1CCCCC1CCCCC1`, for which the IC50 is 14.8 µM.

For `Cc1ccc(OCC(O)Cn2c(=N)n(CCN3CCCCC3)c3ccccc32)cc1` (stereo not drawn), the IC50 is 13.4 µM.

`NC(N)=N/N=C/c1ccc(OCc2ccccc2Cl)cc1`: the IC50 was 39.5 µM.

Turning to `CCCCCCCCNc1ncnc2ccccc12`, the IC50 is 33.2 µM.

In the case of `CN1CCN(c2ccc(NC(=O)c3ccc(-c4ccc(Br)cc4)o3)cc2)CC1`, the IC50 is 19.6 µM.

Take `CC[C@H](C)[C@@H](CN[C@H](C)CNC)NCCC(c1ccccc1)c1ccccc1`: the IC50 is 50.2 µM.

Regarding `O[C@@H](c1cc(C(F)(F)F)nc2c(C(F)(F)F)cccc12)[C@H]1CCCCN1`, the IC50 was 37.8 µM.

With `c1ccc2cc3c(NCCN4CCOCC4)ccnc3cc2c1`, the IC50 is 88.2 µM.

With `Cc1ccc2nc(N(CCCN(C)C)C(=O)c3ccc4c(c3)CCCC4)sc2c1`, the half-maximal inhibitory concentration (IC50) was 31.8 µM.

As to `Cc1cc(N2CCC(C)CC2)nc2cccc(O)c12`, the IC50 is 80.2 µM.

On to `OCCN1CCN(C2Cc3cc(Cl)ccc3Sc3ccc(Cl)cc32)CC1` (stereo not drawn) (tested in a mixture with another compound), for which the IC50 is 25.9 µM.

With `COc1cccc(/C=N/NC(=O)c2ccoc2C)c1O`, the IC50 was 139 µM.

Regarding `O=C1NCCCC1C(=O)N/N=C/c1cc([N+](=O)[O-])ccc1O` (stereo not drawn), the IC50 was 67.2 µM.

For `Cc1ccc(OCC(=O)N/N=C\c2c(C)[nH]n(-c3ccccc3)c2=O)c([N+](=O)[O-])c1`, the IC50 is 42.6 µM.

On to `Oc1ccc(N=Nc2ccc(Br)cc2)c(O)c1`, for which the IC50 is 100 µM.

Take `CCCOc1ccc(C2=CSC3=NCCN23)cc1Cl`: the IC50 was 75.1 µM.

As for `CCCNC(=O)c1cn(CC)c2cc(N3CCN(C)CC3)c(F)cc2c1=O`, the IC50 is 30.6 µM.

As for `Oc1c(CN2CCOCC2)cc(COCc2ccccc2)c2cccnc12`, the IC50 is 36 µM.

Turning to `Cc1ccc2c(c1)c1c(n2CC(O)CNC2CCCCC2)CCCC1` (stereo not drawn), the IC50 was 87.1 µM.

For `S=C(NCc1ccc(Cl)cc1)Nc1ccncc1`, the IC50 was 35 µM.

For `c1ccc(CN2CCC(N3CCN(Cc4ccc5c(c4)OCO5)CC3)CC2)cc1`, the IC50 was 150 µM.

Take `CCOC(=O)C1=C(O)c2ccccc2C(=O)/C1=C\c1ccc(C)cc1`: the IC50 is 137 µM.

Take `Nc1ncn([C@@H]2O[C@H](CO)[C@@H](O)[C@H]2O)c(=O)n1`: the IC50 is 46.2 µM.

Consider `OC1(c2ccc(Cl)cc2)CCN(Cc2c[nH]c3ccccc23)CC1`, for which the IC50 is 29.8 µM.

For `N=c1c2c(-c3ccccc3)c(-c3ccccc3)n(Cc3ccco3)c2ncn1CCCn1ccnc1`, the IC50 was 39.4 µM.

For `C#CCOCCOCCOCCNc1nc(N2CCN(C(=O)CCCCCCCCCCNC(=O)[C@H](CCCCN)n3cc(C)nn3)CC2)nc(N2CCN(C(=O)CCCCCCCCCCNC(=O)[C@@H]([C@H](C)CC)n3cc(CCCCCN)nn3)CC2)n1`, the IC50 was 20.4 µM.

On to `O=[N+]([O-])c1cc(F)c2cccnc2c1O`, for which the IC50 was 7.36 µM.

Turning to `NC1=NC[C@H](Cc2ccccc2)N1CCCCC1CCCCC1`, the IC50 was 19.4 µM.

Regarding `C#CCOCCOCCOCCNc1nc(N2CCN(C(=O)[C@H](Cc3ccc(O)cc3)n3cc([C@@H](N)CC(C)C)nn3)CC2)nc(N2CCN(C(=O)[C@H](Cc3ccc(O)cc3)n3cc([C@@H](N)CC(C)C)nn3)CC2)n1`, the IC50 was 80 µM.

For `CCN1CCCC1Cn1cnc2c([nH]c3ccc(Cl)cc32)c1=O` (stereo not drawn), the IC50 was 118 µM.

Regarding `CCn1cc(C(=O)O)c(=O)c2cc(F)c(N3CCN(C(=S)NC(=O)c4cccc(C)c4)CC3)cc21`, the IC50 was 37.8 µM.

As for `Cc1ccc(C(=O)NNC(=S)NC(=O)c2ccccc2)cc1`, the IC50 was 57.8 µM.

As for `CCCCCCCCCCCCOC(=O)C[N+](C)(C)C`, the IC50 was 19.9 µM.

With `COc1cc([N+](=O)[O-])cc(/C=N/NC(=O)C(C)Nc2cccc(C)c2)c1O` (stereo not drawn), the IC50 was 136 µM.

For `O=c1[nH]c(=S)ccn1C1OC(CO)C(O)C1O` (stereo not drawn), the IC50 was 12.4 µM.

On to `O=C(/C=C/c1ccc(F)cc1)NC(=S)NNC(=O)c1cnccn1`, for which the IC50 was 19 µM.

As for `Cn1c(CN2CCCC2)nc2cc(NC(=O)COc3ccc(Cl)cc3)ccc21`, the IC50 was 128 µM.

For the molecule `COc1ccc(C(=O)N/N=C/c2sc3ccccc3c2O)cc1`, the IC50 is 62.6 µM.

`CN(Cc1ccccc1O)CC1CCCN(CCc2ccc(Cl)cc2)C1` (stereo not drawn): the IC50 was 16.9 µM.

As for `COc1ccc(Cl)cc1C(=O)C1CCCN(CCO)C1` (stereo not drawn), the IC50 was 56.2 µM.

As for `O=C(C[n+]1cc(-c2ccc(Cl)cc2)n2c1CCC2)Nc1nc(-c2ccccc2)cs1`, the IC50 is 20.1 µM.

Consider `CC1CC(C)CN(CCOc2ccc(Cl)cc2Cl)C1` (stereo not drawn), for which the IC50 was 88.2 µM.

Take `CS(=O)(=O)c1ccc([C@@H](O)[C@@H](CF)NC(=O)C(Cl)Cl)cc1`: the IC50 is 5.15 µM.

As for `Cc1cc(NC2CCCCC2)nc(NCc2ccccc2)n1`, the IC50 was 36.1 µM.

For `CCc1ccc(Nc2n[n+](-c3ccccc3)c(-c3c(Cl)cccc3Cl)s2)cc1`, the IC50 was 41.3 µM.

As to `COc1ccc(CNCCc2ccc(Cl)cc2)cc1OCc1ccccc1`, the IC50 is 69.3 µM.

Consider `Cc1ccc(NC(=O)c2ccccc2)s1`, for which the IC50 was 110 µM.

Turning to `CC[C@H]1OC(=O)[C@H](C)[C@@H](O[C@H]2C[C@@](C)(OC)[C@@H](O)[C@H](C)O2)[C@H](C)[C@@H](O[C@@H]2O[C@H](C)C[C@H](N(C)C)[C@H]2O)[C@](C)(OC)C[C@@H](C)C(=O)[C@H](C)[C@@H](O)[C@]1(C)O`, the IC50 is 29.7 µM.

Take `Oc1cccc(C=NCc2ccccc2)c1O`: the IC50 was 73.7 µM.

With `O=C(N/N=C/c1ccc([N+](=O)[O-])o1)c1ccc(O)cc1`, the IC50 is 37.6 µM.

Consider `CCOc1cccc(/C=N/NC(=O)c2cc(C3CC3)[nH]n2)c1O`, for which the IC50 is 127 µM.

For `CN(C)CCOCCOc1ccc(Cl)c2ccccc12`, the IC50 was 41.1 µM.

Consider `CCOC(=O)c1ccc(CNCc2ccc(Br)cc2)cc1`, for which the IC50 was 45.4 µM.

With `O=C(Oc1c(Cl)cc(Cl)c2cccnc12)c1ccco1`, the IC50 was 15.6 µM.

For the molecule `CN(CCOc1ccc(Cl)cc1)CC(O)c1ccccc1` (stereo not drawn), the IC50 is 126 µM.

In the case of `c1ccc(N2CCN(c3nc4ccccc4[nH]3)CC2)nc1`, the half-maximal inhibitory concentration (IC50) was 138 µM.

As for `CCCCC(=O)NNC(=S)NC(=O)CCC`, the IC50 was 92.6 µM.

As for `CCCCN(CCCC)C(=O)c1cn(CC)c2cc(N3CCN(C)CC3)c(F)cc2c1=O`, the IC50 is 15.7 µM.

On to `NC(=O)SCC(=O)Nc1ccc(Cl)cc1`, for which the IC50 is 46.2 µM.

For the molecule `C=CCc1cc(Cl)ccc1OCCCNCCO`, the IC50 was 94.2 µM.

In the case of `CO[C@@]1(NC(=O)Cc2cccs2)C(=O)N2C(C(=O)O)=C(COC(N)=O)CS[C@@H]21`, the IC50 is 7.08 µM.

For `COc1ccc(N2CC(C(=O)N/N=C/c3cc([N+](=O)[O-])ccc3O)CC2=O)cc1` (stereo not drawn), the 50% inhibitory concentration (IC50) was 93.2 µM.

On to `C#CCOCCOCCOCCNc1nc(N2CCN(C(=O)CCCCCCCCCCNC(=O)[C@H]([C@@H](C)CC)n3cc(CCCCN=C(N)N)nn3)CC2)nc(N2CCN(C(=O)CCCCCCCCCCNC(=O)[C@H](CO)n3cc(CCCCCN)nn3)CC2)n1`, for which the half-inhibitory concentration (IC50) was 35.2 µM.

Take `O=C(N/N=C/c1cc(Cl)cc(Cl)c1O)c1ccncc1`: the IC50 is 33.7 µM.

Consider `OC(CN1CCCCC1)Cn1c2ccccc2c2cc(Br)ccc21` (stereo not drawn), for which the IC50 is 37.8 µM.

`Cc1cccc(Nc2c3c(nc4ccccc24)CCC3)c1`: the IC50 was 60.3 µM.

With `NC1=NC2=C(CCCC2)C2(CCCCC2)S1`, the IC50 is 63.8 µM.

For the molecule `Cc1ccc(Nc2nc(N)c3ccccc3n2)cc1Cl`, the IC50 was 36.3 µM.

As to `C#CCOCCOCCOCCNc1nc(N2CCN(C(=O)C(Cc3cc4ccccc4[nH]3)n3cc(C(N)C(C)CC)nn3)CC2)nc(N2CCN(C(=O)C(Cc3cc4ccccc4[nH]3)n3cc(C(N)C(C)CC)nn3)CC2)n1` (stereo not drawn), the IC50 was 134 µM.

Consider `O=C(Nc1nnc(-c2cccs2)o1)c1cccc(F)c1`, for which the IC50 was 28.6 µM.

Consider `CCCCCOc1ccc(C)cc1CN(CCCl)CCCl`, for which the IC50 was 70.3 µM.

Regarding `Clc1ccc(-c2cc(C3CCNCC3)[nH]n2)c(Cl)c1`, the IC50 is 18.2 µM.

Regarding `O=C(NC1CCCCC1)c1ccc([N+](=O)[O-])o1`, the IC50 is 119 µM.

As for `C=CC1=C(C(=O)O)N2C(=O)[C@@H](NC(=O)/C(=N\O)c3csc(N)n3)[C@H]2SC1` (stereo in doubt), the IC50 is 15.4 µM.

In the case of `CSc1ccc2c(c1)N(CCC1CCCCN1C)c1ccccc1S2` (stereo not drawn), the IC50 was 37.2 µM.

For `CN(C)CCCNc1cc(C(C)(C)C)nc2c(-c3ccccc3)cnn12`, the IC50 is 31.5 µM.

Regarding `CCC(=O)c1ccc(OCC(O)CNCCc2ccc(Cl)cc2)cc1` (stereo not drawn), the half-inhibitory concentration (IC50) was 147 µM.

Turning to `O=C1c2c(O)ccc(O)c2C(=O)c2c(NCCNCCO)ccc(NCCNCCO)c21`, the IC50 is 86.5 µM.

`Cc1cccc(NC2=NC3(CCCCC3)N=C(N)N2)c1`: the IC50 is 76.6 µM.

Regarding `Cc1cc([N+](=O)[O-])cc(/C=N\NC(=O)C2COc3ccccc3O2)c1O` (stereo not drawn), the IC50 was 30.3 µM.

On to `Oc1ccccc1C(Nc1nccs1)c1ccc2cccnc2c1O` (stereo not drawn), for which the IC50 is 18.6 µM.

As for `COc1c(N2CCN(C(=S)Nc3ccc(F)cc3)C(C)C2)c(F)cc2c(=O)c(C(=O)O)cn(C3CC3)c12` (stereo not drawn), the IC50 is 18.3 µM.

For `O=C(N/N=C/c1cc([N+](=O)[O-])ccc1O)C(O)(c1ccccc1)c1ccccc1`, the IC50 is 54.9 µM.

`COc1cc(CNC2CCCC2)cc(Cl)c1OCc1ccccc1Cl`: the IC50 was 38 µM.

On to `CCCc1nnc(NC(=O)c2cn(CC)c3cc(N4CCN(C)CC4)c(F)cc3c2=O)s1`, for which the IC50 was 61.6 µM.

On to `CCN1CCN(C(=O)c2cc3cc(F)ccc3[nH]2)CC1`, for which the IC50 is 18.3 µM.

Turning to `CN1CCN(C2=Cc3ccccc3Sc3cc(F)c(F)cc32)CC1`, the IC50 is 37.3 µM.

In the case of `O=C(NC(=S)NNC(=O)c1ccco1)c1ccc(Br)cc1`, the IC50 was 76.2 µM.

On to `NC1=NC[C@H](Cc2ccc(O)cc2)N1CCc1cccc2ccccc12`, for which the IC50 is 36.5 µM.
